# Measured values: US8709445B2, “Vaccination with killed but metabolically active (KBMA) protozoans with toll-like receptor agonists” (priority 2007, dated 2014)
# Entries after “also recorded” stand apart in the source; their conditions may differ.
# Experiments:
# [1] = tested on: Leishmania chagasi; assay: In vitro luciferase assay of parasite metabolic activity after S-59 and UVA; assay type: cell-based
# Description: The L. chagasi strain (MHOM/BR/00/1669), originally isolated from a patient with visceral leishmaniasis in Northeast Brazil, was maintained by serial intracardiac injection in outbred male golden hamsters. Virulent amastigotes were isolated from hamster spleens removed from animals infected approximately 3 months prior to sacrifice. Promastigotes were cultured in hemoflagellate minimal essential medium (HOMEM) at 26° C. and were used for vaccination or challenge within one month of harvest from the hamsters. Killed But Metabolically Active (KBMA) promastigotes were prepared by incubating late-log or stationary phase organisms in amotosalen (S-59) 100 nM for one hour while shaking at room temperature, followed by cross-linking of DNA using UVA irradiation of aliquots of 2 ml of cells in 6 well plates in an Intercept Illuminator (Cerus Corporation). Radiation dose was 5.4 J/cm^2. Heat-killed organisms were prepared by incubating in a 100° C. bath for 10 minutes. Transgenic firefly luciferase expressing L. chagasi and L. major were kindly provided by Dr. Beverley. For CFSE-based flow cytometry experiments, promastigotes were stained with CFSE at 5 μM and, shaken at 37° C. for 10 minutes. Parasites were washed three times with PBS and then cultured at an initial concentration of 5×10^6 per ml in HOMEM for in vitro experiments or injected into mice in 200 μL, of PBS at a concentration of 5×10^8 per ml.
# Serial measures of parasite luciferase activity were made using a Sirius Single Tube Luminometer (Berthold Detection Systems). Aliquots of cultured organisms were taken daily and combined with 5× reporter lysis buffer per the manufacturer's instructions, and frozen at −80° C. All samples were then snap-thawed at 37° C. on the day of assay. 50 μl samples from each aliquot were combined with 100 μl of luciferin and luminescence was quantified with the luminometer in relative luminsescence units (RLU).
# A mouse visceral leishmaniasis model employing Leishmania chagasi expressing firefly luciferase was used to test the susceptibility of a eukaryotic pathogen to in vitro inactivation?). L. chagasi were treated with varying doses of S-59 for 1 hour and then exposed to 5.4 J/cm2 UVA using a commercial illuminator which delivers tightly metered UVA doses to a shaking flask of organisms. This UVA dose was determined based on prior experience with Listeria. After irradiation with UVA, parasites were kept in culture and assayed at various time points for luciferase expression as a measure of metabolic activity. […] To determine if the S-59 induced decline in luciferase activity was associated with an inability to replicate, live L. chagasi promastigotes were stained with the intracellular dye CFSE and monitored for 1 week in culture.
# [2] = tested on: L. chagasi promastigotes; assay: CFSE flow cytometry of promastigote replication in culture; assay type: cell-based, Leishmania chagasi; details: 100 nM S-59 and 5.4 Joules/cm^2 UVA; days 1-7 in culture
# Description: The L. chagasi strain (MHOM/BR/00/1669), originally isolated from a patient with visceral leishmaniasis in Northeast Brazil, was maintained by serial intracardiac injection in outbred male golden hamsters. Virulent amastigotes were isolated from hamster spleens removed from animals infected approximately 3 months prior to sacrifice. Promastigotes were cultured in hemoflagellate minimal essential medium (HOMEM) at 26° C. and were used for vaccination or challenge within one month of harvest from the hamsters. Killed But Metabolically Active (KBMA) promastigotes were prepared by incubating late-log or stationary phase organisms in amotosalen (S-59) 100 nM for one hour while shaking at room temperature, followed by cross-linking of DNA using UVA irradiation of aliquots of 2 ml of cells in 6 well plates in an Intercept Illuminator (Cerus Corporation). Radiation dose was 5.4 J/cm^2. […]
# A mouse visceral leishmaniasis model employing Leishmania chagasi expressing firefly luciferase was used to test the susceptibility of a eukaryotic pathogen to in vitro inactivation?). […] This UVA dose was determined based on prior experience with Listeria. […] To determine if the S-59 induced decline in luciferase activity was associated with an inability to replicate, live L. chagasi promastigotes were stained with the intracellular dye CFSE and monitored for 1 week in culture.
# [3] = tested on: L. chagasi; assay type: in vivo, Leishmania chagasi; details: for protection (reduction in liver parasite load): pilot experiment, combination of subcutaneous KBMA-LC and topically applied TLR agonist
# Description: On the day prior to each vaccination, mice were anesthetized by intraperitoneal injection of 0.2 ml a solution of ketamine 9.1 mg/ml and xylazine 0.73 mg/ml. A 2×3 cm patch of fur in the dorsal cervical area was shaved, and 50 mg of adjuvant cream—either imiquimod 5% cream or appropriate vehicle (3M Pharmaceuticals)—was applied topically to the shaved area. On the day of immunization, mice were anesthetized as above. Unfractionated late-log to stationary phase promastigotes (live or KBMA) were spun at 2000 g for 10 minutes, resuspended in PBS, counted on a Neubauer hemocytometer, and volume-adjusted to a final concentration of 10^8 organisms/ml. One hundred micoliters of the appropriate parasite suspension (10^7 organisms) or 100 μl of PBS for controls was subcutaneously injected into the dorsal-cervical area of anesthetized mice using a 28-gauge needle. Adjuvant cream was then applied at the shaved skin site as above. On the day after immunization, adjuvant cream was once again applied topically as above on unanesthetized mice. For each experiment, mice were immunized three times at two-week intervals. Two weeks after the final immunization, mice were challenged by intravenous injection with 10^7 unfractionated late-log to stationary phase promastigotes in 0.2 ml of PBS.
# Vaccinated mice were sacrificed by CO2 inhalation 4 weeks after intravenous challenge. Livers and spleens were weighed. Impression smears on glass slides were made from dissected spleen and liver tissue and were then methanol-fixed and amastigotes were detected with Giemsa stain. Organ parasite load was scored by direct microscopy and rendered in Leishman-Donavan Units (LDU), defined as number of parasites divided by number of mammalian cells multiplied by the organ mass in milligrams. At least 500 mammalian cells or 500 parasites were counted by a scorer blinded to the vaccination groups.
# [4] = tested on: splenocytes; assay: Luminex cytokine production in splenocytes from immunized mice; assay type: in vivo, BALB/c mice
# Description: FIG. 11C: Luminex quantitation of cytokine production in splenocytes from L. chagasi immunized BALB/c mice with or without adjuvant 5% imiquimod. Mice were immunized three times at two week as in FIG. 10. Two weeks after the final vaccination, animals were sacrificed and 10^6 splenocytes from each were cultured for 66 hours in either in the presence of live L. chagasi. Supernatants from these cultures were frozen and then subsequently thawed and analyzed by the luminex method using antibodies and antibody coated beads specific for the indicated cyotokines. Bars show concentration of the relevant cytokine in pg/ml+/−SEM.
# In a parallel experiment, groups of mice were vaccinated and boosted twice as described above. Splenocytes were harvested from these animals 2 weeks after the third vaccination. Splenocytes were then stimulated with either live LC promastigotes or soluble L. chagasi antigen (SLA) for 66 hours in culture and supernatants were harvested.
SMILES,"time by which all detectable metabolic activity was abolished ([1]; 10^7 promastigotes, 100 nM S-59 and 5.4 Joules/cm^2 UVA) [weeks]","luciferase activity by day 21 ([1]; 100 nm S-59 and UVA, culture inoculated at 10^7 per ml)","effect of higher doses of S-59 on luciferase activity ([1]; doses higher than 100 nM, with UVA, data not shown)","S-59 dose leading to breakthrough outgrowth of parasites ([1]; with 5.4 J/cm2 UVA, data not shown)",replication of CFSE stained promastigotes (per parasite fluorescence) [2],"effect of adjuvant only ([3]; Example 3, imiquimod 5% without whole cell vaccine (PBS))","effect of adjuvant cream compared to control vehicle cream ([3]; Example 3, topical 5% cream in each vaccination group)",protection (reduction in liver parasite load) [3] [%],"pattern of cytokine expression, whole cell vaccines with adjuvant versus vehicle ([4]; imiquimod 5% with whole cell vaccines)","cytokine production, PBS with adjuvant versus PBS with vehicle ([4]; imiquimod 5% without whole cell vaccine)"
"Cc1oc2c(C)c3oc(=O)cc(C)c3cc2c1COCCN [S-59, amotosalen]",≤ 3,approaches baseline luminescence from PBS,more rapid decline in luciferase activity,lower than 50 nM,no such diminution; also recorded: arrests replication,,,,,
"CC(C)Cn1cnc2c(N)nc3ccccc3c21 [imiquimod, 1-isobutyl-1H-imidazo[4,5-c]quinolin-4-amine]",,,,,,trend towards a protective effect,additional protection,68,"increased IFN-γ but decreased IL-10, IL-4, and IL-5",no increase in cytokine production
"CCOCc1nc2c(N)nc3ccccc3c2n1CC(C)(C)O [resiquimod, 4-Amino-2-(ethoxymethyl)-a,a-dimethyl-1H-imidazo[4,5-c]quinoline-1-ethanol]",,,,,,,,87,,
